Experimental data taken from patent US5073627A (Immunex Corporation, priority 1990, dated 1991).

Legend:
[1] = tested on: unfractionated human bone marrow; assay: Human bone marrow colony formation (CFU-GEMM, CFU-GM, BFU-E); format: cell-based; conditions: for Colonies (Mean ± S.D.) CFU-GM: agar
Description: Non-adherent, low density, T cell deplated cultures of human bone marrow were plated in methylcellulose (BFU-E, CFU-GEMM, 40,000 cells per plate) or agar (CFU-GM; 40,000 cells per culture) as described by Lu et al., Blood 61:250 (1983). Methylcellulose cultures contained 1 unit per plate erythropoietin and accounts for the background of 48±2 BFU-E in the absence of cytokine. Cultures were incubated in a 5% O2, 5% CO2, 90% N2 atmosphere for 14 days and counted with an inverted microscope.

AML-193 cells = assay: Thymidine incorporation assay, proliferation of AML-193 cells; format: cell-based, human; conditions: for Specific Activity: one unit = amount of growth factor for half-maximal thymidine incorporation, AML-193 cells
Description: The cells were split twice weekly and were seeded into fresh medium at a density of 300,000/ml.
These samples were then serially diluted by 3-fold through the additional 11 wells of the microtitre plate. […] Tritiated thymidine ([…]) was added to each well for an additional 6 hours of incubation and the samples were harvested with an automated sample harvester and counted by liquid scintillation. One unit of activity is defined as the amount of growth factor required to stimulate half-maximal thymidine incorporation.

[2] = target: T1, receptors on KG-1 cells (GM-CSF/IL-3 receptors) (Homo sapiens, UniProt P26951+P32927); assay: Inhibition of 125I-IL-3 binding to KG-1 cells; conditions: for KI value on KG-1 cells relative to JM-1 cells: Table F data
T1 construct: endogenous in cells; host or cells: KG-1
T1 sequence (P26951 19-378): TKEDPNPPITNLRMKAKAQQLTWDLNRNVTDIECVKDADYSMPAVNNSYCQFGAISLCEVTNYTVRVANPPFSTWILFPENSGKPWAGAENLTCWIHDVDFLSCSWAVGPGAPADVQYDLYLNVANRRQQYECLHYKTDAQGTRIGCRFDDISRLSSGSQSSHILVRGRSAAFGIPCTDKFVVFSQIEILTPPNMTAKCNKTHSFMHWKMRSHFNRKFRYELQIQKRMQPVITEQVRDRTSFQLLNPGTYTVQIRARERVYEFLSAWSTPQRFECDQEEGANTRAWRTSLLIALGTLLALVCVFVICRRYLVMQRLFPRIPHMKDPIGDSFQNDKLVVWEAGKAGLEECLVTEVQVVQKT
T1 sequence (P32927 17-897): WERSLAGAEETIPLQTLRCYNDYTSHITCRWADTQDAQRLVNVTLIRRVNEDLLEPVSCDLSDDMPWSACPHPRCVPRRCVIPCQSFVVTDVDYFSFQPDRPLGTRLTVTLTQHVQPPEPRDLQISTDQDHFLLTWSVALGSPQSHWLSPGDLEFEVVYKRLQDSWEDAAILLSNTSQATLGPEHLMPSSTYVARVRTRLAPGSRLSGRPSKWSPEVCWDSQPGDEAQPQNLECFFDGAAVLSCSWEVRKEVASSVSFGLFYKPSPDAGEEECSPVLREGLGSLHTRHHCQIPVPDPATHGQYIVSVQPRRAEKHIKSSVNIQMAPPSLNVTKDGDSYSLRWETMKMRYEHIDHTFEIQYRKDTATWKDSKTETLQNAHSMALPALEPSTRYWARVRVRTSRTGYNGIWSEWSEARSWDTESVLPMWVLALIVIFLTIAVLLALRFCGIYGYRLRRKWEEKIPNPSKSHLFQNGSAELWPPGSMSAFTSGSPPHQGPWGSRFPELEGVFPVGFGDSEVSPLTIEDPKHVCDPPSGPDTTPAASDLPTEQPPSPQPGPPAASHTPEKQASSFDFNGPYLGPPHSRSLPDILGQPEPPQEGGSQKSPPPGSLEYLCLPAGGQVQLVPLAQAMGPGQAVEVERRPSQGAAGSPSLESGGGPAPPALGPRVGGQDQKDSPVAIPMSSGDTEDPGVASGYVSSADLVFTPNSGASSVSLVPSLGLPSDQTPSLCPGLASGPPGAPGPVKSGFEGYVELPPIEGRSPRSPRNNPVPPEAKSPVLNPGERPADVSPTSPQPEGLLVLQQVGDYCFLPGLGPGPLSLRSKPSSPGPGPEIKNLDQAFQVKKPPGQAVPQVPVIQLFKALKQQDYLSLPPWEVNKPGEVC
Description: (§1) Briefly, 2-10 μg of recombinant protein in 50 μl 0.2M sodium phosphate, pH 7.2, was combined with 50 μl enzymobead reagent, 2 mCi of sodium iodide in 20 μl of 0.05M sodium phosphate pH 7 and 10 μl of 2.5% β-D-glucose. After 10 min at 25° C., sodium azide (10 μl of 50 mM) and sodium metabisulfite (10 μl of 5 mg/ml) were added sequentially and incubation continued for 5 minutes at 25° C.
(§2) B. Binding Assays. Binding assays were performed using JM-1, KG-1, HL-60 and AML-193 cells.

[3] = target: T2, receptors on AML-193 cells (GM-CSF/IL-3 receptors) (Homo sapiens, UniProt P26951+P32927); assay: Inhibition of 125I-IL-3 binding to AML-193 cells; conditions: normalized data, JM-1 as standard
T2 construct: endogenous in cells; host or cells: AML-193
T2 sequence (P26951 19-378): T1 sequence (P26951 19-378)
T2 sequence (P32927 17-897): T1 sequence (P32927 17-897)
Description: as §1, §2

[4] = Table D, 312 pg/ml (GM-CSF + IL-3: 312 + 312), 14 days
[5] = Table D, 625 pg/ml (GM-CSF + IL-3: 625 + 625), 14 days
[6] = Table D, 625 pg/ml (GM-CSF + IL-3: 625 + 625), with erythropoietin, background 48 ± 2
[7] = Table D, 1250 pg/ml (GM-CSF + IL-3: 1250 + 1250), 14 days
[8] = Table D, 1250 pg/ml (GM-CSF + IL-3: 1250 + 1250), with erythropoietin, background 48 ± 2
[9] = Table D, 2500 pg/ml (GM-CSF + IL-3: 2500 + 2500), 14 days
[10] = Table D, 2500 pg/ml (GM-CSF + IL-3: 2500 + 2500), with erythropoietin, background 48 ± 2
[11] = Table D, 5000 pg/ml (GM-CSF + IL-3: 5000 + 5000), 14 days
[12] = Table D, 5000 pg/ml (GM-CSF + IL-3: 5000 + 5000), with erythropoietin, background 48 ± 2
[13] = Table D, 156 pg/ml (GM-CSF + IL-3: 156 ± 156 [sic]), 14 days

In the case of “GM-CSF: recombinant human granulocyte-macrophage colony-stimulating factor expressed in yeast, comparator”, the “Colonies (Mean ± S.D.) CFU-GEMM” value [1, 4] is reported as 0 colonies, the “Colonies (Mean ± S.D.) CFU-GM” value [1, 4] is reported as 16 ± 1 colonies and the “Colonies (Mean ± S.D.) CFU-GEMM” value [1, 5] is reported as 0.3 ± 0.3 colonies. For the same substance, the “Colonies (Mean ± S.D.) CFU-GM” value [1, 5] was 21 ± 2 colonies, the “Colonies (Mean ± S.D.) BFU-E” value [1, 6] was 46 ± 3 colonies and the “Colonies (Mean ± S.D.) CFU-GEMM” value [1, 7] was 1.5 ± 0.3 colonies. The “Colonies (Mean ± S.D.) CFU-GM” value [1, 7] was 33 ± 2 colonies, the “Colonies (Mean ± S.D.) BFU-E” value [1, 8] was 47 ± 4 colonies and the “Colonies (Mean ± S.D.) CFU-GEMM” value [1, 9] was 3.5 ± 0.7 colonies. For the same substance, the “Colonies (Mean ± S.D.) CFU-GM” value [1, 9] was 42 ± 2 colonies, the “Colonies (Mean ± S.D.) BFU-E” value [1, 10] was 61 ± 1 colonies and the “Colonies (Mean ± S.D.) CFU-GEMM” value [1, 11] was 6.8 ± 0.6 colonies. For the same substance, the “Colonies (Mean ± S.D.) CFU-GM” value [1, 11] was 42 ± 4 colonies, the “Colonies (Mean ± S.D.) BFU-E” value [1, 12] was 63 ± 3 colonies and the “Specific Activity” value (AML-193 cells) was 9.74 × 10^4 units/mg.
“huGM-CSF[Leu^23 Asp^27 Glu^39 ]/Gly4 SerGly5 Ser/huIL-3[Pro^8 Asp^15 Asp^70 ] [GM-CSF/IL-3]” was tested, and the “BFU-E, CFU-GM and CFU-GEMM colony formation relative to IL-3 or GM-CSF alone, or IL-3 and GM-CSF combined” value ([1]; FIG. 3A-3D) was “enhances”, the “Colonies (Mean ± S.D.) CFU-GEMM” value ([1]; Table D, 78 pg/ml, 14 days) was 0 colonies and the “Colonies (Mean ± S.D.) CFU-GM” value ([1]; Table D, 78 pg/ml, 14 days) was 16 ± 2 colonies. For the same substance, the “Colonies (Mean ± S.D.) BFU-E” value ([1]; Table D, 78 pg/ml, with erythropoietin, background 48 ± 2) was 50 ± 3 colonies, the “Colonies (Mean ± S.D.) CFU-GEMM” value [1, 13] was 1.0 ± 0.4 colonies and the “Colonies (Mean ± S.D.) CFU-GM” value [1, 13] was 24 ± 3 colonies. For the same substance, the “Colonies (Mean ± S.D.) BFU-E” value ([1]; Table D, 156 pg/ml (GM-CSF + IL-3: 156 ± 156 [sic]), with erythropoietin, background 48 ± 2) was 49 ± 6 colonies, the “Colonies (Mean ± S.D.) CFU-GEMM” value [1, 4] was 2.5 ± 0.7 colonies and the “Colonies (Mean ± S.D.) CFU-GM” value [1, 4] was 35 ± 2 colonies. For the same substance, the “Colonies (Mean ± S.D.) BFU-E” value ([1]; Table D, 312 pg/ml (GM-CSF + IL-3: 312 + 312), with erythropoietin, background 48 ± 2) was 70 ± 4 colonies, the “Colonies (Mean ± S.D.) CFU-GEMM” value [1, 5] was 4.3 ± 0.5 colonies and the “Colonies (Mean ± S.D.) CFU-GM” value [1, 5] was 52 ± 6 colonies. For the same substance, the “Colonies (Mean ± S.D.) BFU-E” value [1, 6] was 83 ± 5 colonies, the “Colonies (Mean ± S.D.) CFU-GEMM” value [1, 7] was 6.8 ± 0.5 colonies and the “Colonies (Mean ± S.D.) CFU-GM” value [1, 7] was 59 ± 2 colonies. The “Colonies (Mean ± S.D.) BFU-E” value [1, 8] was 125 ± 8 colonies, the “Colonies (Mean ± S.D.) CFU-GEMM” value [1, 9] was 10.3 ± 0.9 colonies and the “Colonies (Mean ± S.D.) CFU-GM” value [1, 9] was 74 ± 1 colonies. The “Colonies (Mean ± S.D.) BFU-E” value [1, 10] was 119 ± 5 colonies, the “Colonies (Mean ± S.D.) CFU-GEMM” value [1, 11] was 10.3 ± 1 colonies and the “Colonies (Mean ± S.D.) CFU-GM” value [1, 11] was 97 ± 2 colonies. For the same substance, the “Colonies (Mean ± S.D.) BFU-E” value [1, 12] was 107 ± 5 colonies, the “Colonies (Mean ± S.D.) CFU-GM” value ([1]; Table E, 78 pg/ml) was 2 ± 0.3 colonies and the “Colonies (Mean ± S.D.) CFU-GEMM” value ([1]; Table E, 78 pg/ml, media control 2 ± 0) was 2.0 ± 0 colonies. For the same substance, the “Colonies (Mean ± S.D.) BFU-E” value ([1]; Table E, 78 pg/ml, media control 44 ± 4) was 44 ± 1 colonies, the “Colonies (Mean ± S.D.) CFU-GM” value ([1]; Table E, 156 pg/ml (GM-CSF + IL-3: 156 + 156)) was 5 ± 1 colonies and the “Colonies (Mean ± S.D.) CFU-GEMM” value ([1]; Table E, 156 pg/ml, media control 2 ± 0) was 2.0 ± 1 colonies. The “Colonies (Mean ± S.D.) BFU-E” value ([1]; Table E, 156 pg/ml, media control 44 ± 4) was 47 ± 3 colonies, the “Colonies (Mean ± S.D.) CFU-GM” value ([1]; Table E, 312 pg/ml (GM-CSF + IL-3: 312 + 312)) was 8 ± 1 colonies and the “Colonies (Mean ± S.D.) CFU-GEMM” value ([1]; Table E, 312 pg/ml, media control 2 ± 0) was 5.5 ± 0.5 colonies. For the same substance, the “Colonies (Mean ± S.D.) BFU-E” value ([1]; Table E, 312 pg/ml, media control 44 ± 4) was 71 ± 1 colonies, the “Colonies (Mean ± S.D.) CFU-GM” value ([1]; Table E, 625 pg/ml (GM-CSF + IL-3: 625 + 625)) was 15 ± 2 colonies and the “Colonies (Mean ± S.D.) CFU-GEMM” value ([1]; Table E, 625 pg/ml (GM-CSF + IL-3: 625 + 625), media control 2 ± 0) was 6.0 ± 1 colonies. For the same substance, the “Colonies (Mean ± S.D.) BFU-E” value ([1]; Table E, 625 pg/ml (GM-CSF + IL-3: 625 + 625), media control 44 ± 4) was 97 ± 2 colonies, the “Colonies (Mean ± S.D.) CFU-GM” value ([1]; Table E, 1250 pg/ml (GM-CSF + IL-3: 1250 + 1250)) was 23 ± 2 colonies and the “Colonies (Mean ± S.D.) CFU-GEMM” value ([1]; Table E, 1250 pg/ml (GM-CSF + IL-3: 1250 + 1250), media control 2 ± 0) was 9.0 ± 0 colonies. For the same substance, the “Colonies (Mean ± S.D.) BFU-E” value ([1]; Table E, 1250 pg/ml (GM-CSF + IL-3: 1250 + 1250), media control 44 ± 4) was 127 ± 7 colonies, the “Colonies (Mean ± S.D.) CFU-GM” value ([1]; Table E, 2500 pg/ml (GM-CSF + IL-3: 2500 + 2500)) was 45 ± 5 colonies and the “Colonies (Mean ± S.D.) CFU-GEMM” value ([1]; Table E, 2500 pg/ml (GM-CSF + IL-3: 2500 + 2500), media control 2 ± 0) was 10.0 ± 1 colonies. For the same substance, the “Colonies (Mean ± S.D.) BFU-E” value ([1]; Table E, 2500 pg/ml (GM-CSF + IL-3: 2500 + 2500), media control 44 ± 4) was 125 ± 10 colonies, the “Colonies (Mean ± S.D.) CFU-GM” value ([1]; Table E, 5000 pg/ml (GM-CSF + IL-3: 5000 + 5000)) was 43 ± 5 colonies and the “Potency in enhancing proliferation of unfractionated human bone marrow cells” value ([1]; summary of Tables D and E) was “equivalent in potentcy to a mixture of GM-CSF and IL-3”. The “KI value on KG-1 cells relative to JM-1 cells” value [2] was 10-20 fold, the “Binding affinity to KG-1 cells relative to JM-1 cells” value ([2]; normalized data, JM-1 as standard) was 41.0 fold and the “Binding affinity to AML-193 cells relative to JM-1 cells” value [3] was 11.1 fold. The “Specific activity relative to IL-3 or GM-CSF alone or GM-CSF plus IL-3 combined” value (AML-193 cells; AML-193 thymidine incorporation) was “approximately 10 fold” and the “Specific Activity” value (AML-193 cells) was 1.81 × 10^6 units/mg.
In the case of “huIL-3[Pro^8 Asp^15 Asp^70 ]/huGM-CSF[Leu^23 Asp^27 Glu^39 ] [IL-3/GM-CSF]”, the “KI value on KG-1 cells relative to JM-1 cells” value [2] is reported as 10-20 fold.
